Results on two molecules are retold here after US20070161542A1, “Ptb1b photoprobes” (priority 2003, published 2007).

Data set [1] has as its target T1, PTP1B in HEPG2 whole cells (Homo sapiens, UniProt P18031).
T1 construct: Labeling of Endogenous PTP1B in HEPG2 Cell Lysate; endogenous in cells; host or cells: HepG2 (human hepatoma, ATCC)
T1 sequence (P18031 1-435): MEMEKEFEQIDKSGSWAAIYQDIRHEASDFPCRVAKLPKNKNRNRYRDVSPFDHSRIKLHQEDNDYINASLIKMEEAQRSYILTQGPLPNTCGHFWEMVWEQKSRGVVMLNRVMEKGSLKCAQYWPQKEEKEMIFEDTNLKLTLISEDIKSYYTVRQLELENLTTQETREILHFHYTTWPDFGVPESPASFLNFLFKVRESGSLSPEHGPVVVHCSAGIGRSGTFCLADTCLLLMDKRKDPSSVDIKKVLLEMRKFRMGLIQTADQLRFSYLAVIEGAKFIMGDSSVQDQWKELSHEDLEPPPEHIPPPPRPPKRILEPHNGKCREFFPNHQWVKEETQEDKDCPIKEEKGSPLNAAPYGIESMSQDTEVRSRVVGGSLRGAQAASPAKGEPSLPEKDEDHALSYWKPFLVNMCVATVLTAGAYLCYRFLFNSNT
The data set can be described thus: Labeling of endogenous PTP1B in HEPG2 whole cells. In kind it is cell-based. The following applies: mass balance on total counts, 5 nM probe. As for the experimental part: Human hepatoma cells (HepG2) were obtained from American Type Culture Collection and maintained in regular MEM containing 10% FBS and 1% antibiotics at 37° C., 5% CO2. For photoprobe experiments, cells (2×10^4) were grown until 80% confluence in 6-well plates and serum starved for 14 hours by incubating in MEM with 1% antibiotics without FBS.
HEPG2 cells were grown to ˜80% confluency in 6-well dishes. Media was removed and washed twice with Hanks-Hepes buffer (15 mM Hepes). For HepG2 lysate studies, the cells were lysed on ice for 15 minutes using 1 ml lysate buffer (50 mM Tris pH 7.4, 150 mM NaCl, 1% Triton X-100, 5 mM EDTA, 5 mM DTT, Complete™ protease inhibitor tablet). […] The protein concentration of the lysates was determined by the method of Lowry (detergent compatible).
PTP1B was immunoprecipitated from HepG2 cell lysates (1 ml of 1 mg/ml) using 3.5 ug of anti-PTP1B antibody (BDT) overnight at 4° C. with rotation. […] For autoradiogram detection of radioactivity, the gels were dried and exposed to BioMax MS film with an intensifying screen at −80° C. Protein bands were quantified using a scanning densitometer (Bio-Rad).
The compound of Example 1 at various concentrations was incubated with HEPG2 whole cells for 30 min and was irradiated on ice for 15 min. The cells were then lysed, and labeled PTP1B was measured after immunoprecipitation. […]

A short description of data set [2]: Photolysis of the probes in water (time course, quantum yield). In kind it is physicochemical. Particulars: chemical actinometry; absorbance at 345 and 350 nm for Examples 9 and 1. As for the experimental part:
A time course for photolysis of the probes in water was determined by measuring product formation by HPLC-MS. […] Based on the time course of photolysis of an aqueous probe with a 40 W lamp, t1/2 values of about 2 min were measured using the 40 W lamp. When a 450 W lamp was used, the t1/2 was reduced to less than 30 sec.
The quantum yield of the photoprobes was determined from the number of photons absorbed and the number of moles of photolysis product that were formed. The number of photons absorbed was determined by chemical actinometry, using the method of Parker (26). The moles of irradiated product produced over time was measured by measuring the absorbance at 345 and 350 nm for Examples 9 and 1 respectively. The quantum yield was calculated to be 0.83 and 0.74 for Examples 9 and 1 respectively.

Regarding `NC(=O)[C@H](Cc1ccc(C(F)(F)P(=O)(O)O)c(Br)c1)NC(=O)[C@H](Cc1ccc(C(F)(F)P(=O)(O)O)c(Br)c1)NC(=O)c1cc(I)cc(C2(C(F)(F)F)N=N2)c1` [Example 1, Tetraamnionium 3-bromo-4-(difluoro(phosphonato)methyl)-N-(3-iodo-5-(3-(trifluoromethyl)-3H-diaziren-3-yl)benzoyl)-L-phenylalanyl-3-bromo-4-(difluoro(phosphonato)methyl)-L-phenylalaninamide], in data set [1], the “cell permeability (share of probe associated with the cell)” value is “around 10%”.

`NC(=O)[C@H](Cc1ccc(C(F)(F)P(=O)(O)O)cc1)NC(=O)[C@H](Cc1ccc(C(F)(F)P(=O)(O)O)cc1)NC(=O)c1cc(I)cc(C2(C(F)(F)F)N=N2)c1` [Example 9, 4-(Difluoro(phosphono)methyl)-N-(3-iodo-5-(3-(trifluoromethyl)-3H-diaziren-3-yl)benzoyl)-L-phenylalanyl-4-(difluoro(phosphono)methyl)-L-phenylalaninamide] came in with a quantum yield in data set [2] of 0.83.
